Twelve compounds from ChEMBL document CHEMBL1133485, “3alpha-(4-Substituted phenyl)nortropane-2beta-carboxylic acid methyl esters show selective binding at the norepinephrine transporter” (Bioorg Med Chem Lett, 2000) can be followed below.

As usually defined, the Ki is the dissociation constant of the complex between target and ligand, obtained from inhibition or displacement. Low readings indicate a stronger hold on the target, high ones a looser hold on the target. In general, IC50 refers to the concentration at which inhibition is half-maximal. Lower therefore signals higher potency.

For test [1], the target named is T1, Norepinephrine transporter (Rattus norvegicus, UniProt Q9WTR4). Kind of test: Inhibition of 0.5 nM [3H]nisoxetine binding to Norepinephrine transporter.
T1 sequence (Q9WTR4 whole entry): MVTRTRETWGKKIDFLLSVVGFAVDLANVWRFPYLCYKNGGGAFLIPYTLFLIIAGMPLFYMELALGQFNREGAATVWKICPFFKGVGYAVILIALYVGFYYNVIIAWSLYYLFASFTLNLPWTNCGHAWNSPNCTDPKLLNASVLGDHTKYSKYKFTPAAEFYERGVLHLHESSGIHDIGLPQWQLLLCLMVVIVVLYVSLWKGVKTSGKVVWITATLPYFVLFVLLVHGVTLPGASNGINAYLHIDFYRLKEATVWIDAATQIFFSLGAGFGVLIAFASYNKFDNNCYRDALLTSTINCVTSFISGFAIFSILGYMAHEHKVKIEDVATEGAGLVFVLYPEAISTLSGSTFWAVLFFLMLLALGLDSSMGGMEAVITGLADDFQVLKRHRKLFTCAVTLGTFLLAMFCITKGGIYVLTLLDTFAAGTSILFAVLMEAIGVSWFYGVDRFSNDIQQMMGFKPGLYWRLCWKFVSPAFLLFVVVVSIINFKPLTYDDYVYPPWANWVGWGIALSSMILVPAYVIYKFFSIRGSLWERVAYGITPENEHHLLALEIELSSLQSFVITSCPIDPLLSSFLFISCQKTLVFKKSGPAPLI
Test [2] deals with Sodium-dependent dopamine transporter (Rattus norvegicus, UniProt P23977). The test is described as follows: Displacement of 0.5 nM [3H]WIN-35248 from Dopamine transporter.
Sodium-dependent dopamine transporter, sequence (P23977 whole entry): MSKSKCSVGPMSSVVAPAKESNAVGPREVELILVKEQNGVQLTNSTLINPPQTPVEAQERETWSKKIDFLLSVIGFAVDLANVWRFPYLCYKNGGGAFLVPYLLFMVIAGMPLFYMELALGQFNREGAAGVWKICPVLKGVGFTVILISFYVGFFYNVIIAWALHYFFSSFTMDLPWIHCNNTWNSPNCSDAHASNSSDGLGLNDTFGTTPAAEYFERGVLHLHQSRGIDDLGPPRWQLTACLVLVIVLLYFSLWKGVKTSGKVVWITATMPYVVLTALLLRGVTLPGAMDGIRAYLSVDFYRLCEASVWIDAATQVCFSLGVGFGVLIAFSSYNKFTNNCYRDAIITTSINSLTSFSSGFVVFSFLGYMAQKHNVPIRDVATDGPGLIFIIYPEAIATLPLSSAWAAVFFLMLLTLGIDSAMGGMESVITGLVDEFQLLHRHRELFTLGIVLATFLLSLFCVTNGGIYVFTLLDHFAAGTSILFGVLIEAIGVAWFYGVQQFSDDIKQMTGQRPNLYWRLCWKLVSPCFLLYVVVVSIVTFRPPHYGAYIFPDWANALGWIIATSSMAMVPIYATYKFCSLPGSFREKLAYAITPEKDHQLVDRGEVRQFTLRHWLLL
The target in test [3] is T1, Norepinephrine transporter. The test is described as follows: Inhibition of 0.5 nM [3H]nisoxetine binding toNorepinephrine transporter.
Test [4] addresses T2, Sodium-dependent serotonin transporter (Rattus norvegicus, UniProt P31652). Kind of test: Inhibition of 0.2 nM [3H]paroxetine binding to Serotonin transporter.
Test [5] concerns the target T2, Sodium-dependent serotonin transporter.

T2 sequence (P31652 whole entry): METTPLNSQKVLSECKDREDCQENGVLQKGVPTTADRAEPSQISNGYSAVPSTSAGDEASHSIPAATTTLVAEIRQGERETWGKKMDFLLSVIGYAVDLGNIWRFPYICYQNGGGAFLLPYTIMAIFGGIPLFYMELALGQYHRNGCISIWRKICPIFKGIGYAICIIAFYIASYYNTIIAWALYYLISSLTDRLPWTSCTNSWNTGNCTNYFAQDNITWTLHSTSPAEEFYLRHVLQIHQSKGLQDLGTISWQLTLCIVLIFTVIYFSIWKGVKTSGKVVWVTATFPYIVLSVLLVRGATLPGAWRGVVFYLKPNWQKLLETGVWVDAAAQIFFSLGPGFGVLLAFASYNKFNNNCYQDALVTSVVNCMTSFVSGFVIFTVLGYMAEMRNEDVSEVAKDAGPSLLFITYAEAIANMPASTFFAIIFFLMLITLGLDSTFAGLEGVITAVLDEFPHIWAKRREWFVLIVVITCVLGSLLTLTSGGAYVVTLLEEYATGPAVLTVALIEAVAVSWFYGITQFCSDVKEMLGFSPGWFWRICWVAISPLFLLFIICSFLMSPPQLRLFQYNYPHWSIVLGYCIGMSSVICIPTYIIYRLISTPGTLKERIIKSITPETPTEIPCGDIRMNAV

For the compound `COC(=O)C1C2CCC(CC1c1ccc(F)cc1)N2` (stereo in doubt; 4a), the inhibition constant (Ki) worked out at 5.9 nM in test [1] and 8.4 nM in test [5]. In addition, the values for the 50% inhibitory concentration (IC50) in test [2], in test [3] and in test [4] were 32.6 nM, 9.8 nM and 92.4 nM, respectively.
In the case of `COC(=O)C1C2CCC(CC1c1ccc(Cl)cc1)N2` (stereo in doubt; 4b), the Ki was 3.1 nM in test [1] and 4.8 nM in test [5]. The IC50 in test [2] stood at 3.1 nM; in test [3], 5.14 nM; in test [4], 53 nM.
`COC(=O)C1C2CCC(CC1c1ccc(C)cc1)N2` (stereo in doubt; 4c): the Ki amounted to 5.2 nM in test [1] and 46 nM in test [5]. The IC50 stood at 33.6 nM in test [2], 9 nM in test [3] and 500 nM in test [4].
Turning to `COC(=O)[C@H]1[C@@H](c2ccc(F)cc2)C[C@H]2CC[C@H]1N2C` (stereo in doubt; 5a), the Ki in test [1] was 741 nM; in test [5], 460 nM.
Consider `COC(=O)C1C(c2ccc(Cl)cc2)CC2CCC1N2C` (stereo in doubt; 5b), for which the Ki in test [5] stood at 91 nM.
As for `COC(=O)C1C(c2ccc(C)cc2)CC2CCC1N2C` (stereo in doubt; 5c), the inhibitory constant (Ki) in test [1] is 160 nM. Besides, the concentration for half-maximal inhibition (IC50) in test [3] was found to be 270 nM.
As to `COC(=O)[C@H]1[C@@H](c2ccc(F)cc2)C[C@H]2CC[C@H]1N2C` (stereo in doubt; 6a), the Ki in test [1] is 503 nM; in test [5], 69 nM.
In test [5], `COC(=O)C1C(c2ccc(Cl)cc2)CC2CCC1N2C` (stereo in doubt; 6b) showed a Ki of 4 nM.
`COC(=O)C1C(c2ccc(C)cc2)CC2CCC1N2C` (stereo in doubt; 6c) came in with a Ki in test [1] of 36 nM.
As for `COC(=O)C1C2CCC(CC1c1ccc(F)cc1)N2` (stereo in doubt; 7a), the values for the Ki in test [1] and in test [5] were 11.3 nM and 6.24 nM, respectively. Moreover, the results for the IC50 in test [2] and in test [3] were 4.4 nM and 18.8 nM, respectively.
`COC(=O)C1C2CCC(CC1c1ccc(Cl)cc1)N2` (stereo in doubt; 7b): the Ki stood at 3.28 nM in test [1] and 0.38 nM in test [5]. Also, in test [3], the IC50 turned out to be 5.45 nM.
As for `COC(=O)C1C2CCC(CC1c1ccc(C)cc1)N2` (stereo in doubt; 7c), the Ki in test [1] was found to be 4.4 nM; in test [5], 12 nM. The IC50 in test [2] amounted to 0.84 nM; in test [3], 7.2 nM; in test [4], 135 nM.
